Several values for one entry are separate records, joined by “and”; a condition that tells them apart may be missing. Equal values may be shown once.
Legend:
METTL3 = molecular target: T1, METTL3 (Homo sapiens, UniProt Q86U44); test: Cellular degradation assay (Western blot), METTL3 in MOLM-13; type: cell-based; details: MOLM-13, 24 h, 2 μM compound
T1 construct: METTL3–14 degradation up to 70% of the endogenous level; endogenous in cells; host or cells: MOLM-13, PC3, DU145
Description: (§1) MOLM-13, NOMO-1, THP-1, Kasumi-1, PC3, and DU145 cell lines were obtained from DSMZ-German Collection of Microorganisms and Cell Cultures GmbH. Cells were cultured in RPMI 1640 medium (11875093, Thermo Fisher Scientific) containing 10% FBS (16140071, Thermo Fisher Scientific) and 1% penicillin-streptomycin (15140122, Thermo Fisher Scientific) in 5% CO2 at 37 °C in a humidified incubator, with maintained cell densities at 0.5–1 × 10^6 cells/mL. All cell lines were tested negative for mycoplasma contamination (PCR-based assay by Microsynth, Switzerland).
(§2) METTL3 (and METTL14) protein degradation was monitored by Western blot. Cells were treated with the indicated concentration of PROTACs or DMSO control (0.1% (v/v)) for 24h, 37 °C with 5% CO2. Samples were then collected and lysed with RIPA buffer with added protease inhibitors (11697498001, Roche). After SDS-PAGE, proteins were transferred to a nitrocellulose membrane, blocked (with 5% milk, 0.5% BSA in TBST buffer), and incubated overnight with primary antibodies. The following antibodies were used: GAPDH (no. 2118, Cell Signaling, 1:4000), β-actin (ab8226, Abcam, 1:2000), METTL3 (ab195352, Abcam, 1:1000), and METTL14 (ab220031, Abcam, 1:1000). Membranes were scanned using an LI-COR Odyssey DLx imager after incubation with appropriate secondary antibodies (antimouse IgG IRDye 680RD (926–68072, LI-COR, 1:10000) and goat anti-Rabbit IgG IRDye 800CW (926–32211, LI-COR, 1:10000)). Densitometry was performed in Image Studio Lite software and analyzed in GraphPad Prism 9.

METTL14 = test: Cellular degradation assay (Western blot), METTL14 in MOLM-13; type: cell-based, human; details: MOLM-13, 24 h, 2 μM compound
Description: as §1, §2

[1] = molecular target: T2, ternary complex CRBN/PROTAC/METTL3–14 (Homo sapiens, UniProt Q86U44+Q96SW2); test: FRET-based ternary complex formation assay (TCFA); type: binding; details: for TCFA amplitude (mean ± SEM): Hook curve amplitude, fraction of the maximum of compound 16; for ECmax (nM) ± SD: PROTAC concentration at the maximum of the signal in the TCFA; for ECmax: TCFA, peak of the Hook curve
T2 construct: methyltransferase domains (MTD) of METTL3 (residues 354–580); His6 (N, cleaved yes); made in house; host or cells: METTL3-MTD/METTL14-MTD: baculovirus/Sf9; CRBN-TBD: E. coli Rosetta (DE3), co-expressed with BirA
Description: For protein expression, suspension cultures of Sf9 cells in […] medium (Thermo Fisher) were infected at a density of 2 × 10^6 mL^–1. […] The complex was further purified by size exclusion chromatography using a Superdex 200 Increase 10/300 GL column (Cytiva) in 20 mM Tris-Cl, pH 8.0, and 200 mM KCl. The complex was aliquoted and flash-frozen in liquid nitrogen and stored at −80 °C until further use.
Ternary complex formation between the PROTACs, METTL3, and CRBN was quantified by a homogeneous time-resolved fluorescence (HTRF)-based enzyme assay. […] Curves of titrations with the PROTACs were plotted in GraphPad Prism 9.5.1 and fitted with a Gaussian function, if appropriate. […] CRBN^TBD-Avi(biotin) was used at a final concentration of 10 nM. […] Anti-GST Eu^3+-labeled antibody (Cisbio, 61GSTKLB) was used at a final concentration of 0.8 nM. The final reaction volume was 20 μL in 50 mM HEPES (pH 7.5), 150 mM NaCl, 0.1% BSA, 100 mM KF. […] The ratio of the emissions [drawing 1] was considered for further analysis. […] The concentrations resulting in the maximum signal (ECmax) and the amplitudes of the Hook curves were determined from the parameters of the Gaussian fit (if appropriate) or as the coordinates of the data-point with the highest TR-FRET signal.
For the ternary complex formation assay (TCFA), one of the protein partners must have a GST-tag and the other a biotin-tag.

METTL3-14 = METTL3-14 (Homo sapiens, UniProt Q86U44); test: biochemical; parameters: with the full-length complex, the recombinant complex construct pFastBacDual-StrepII-GFP-TEV-METTL3-His-TEV-METTL14 was expressed; StrepII (N); GFP (N); TEV site (N); made in house; host or cells: baculovirus/Sf9 insect cells; details: inhibition of catalytic activity of METTL3-14, binary FRET assay
Text: For determining the half maximal inhibitory concentration (IC50) with the full-length complex, the recombinant complex construct pFastBacDual-StrepII-GFP-TEV-METTL3-His-TEV-METTL14 was expressed using the baculovirus/Sf9 insect cell expression system and purified as described previously.[21]
The inhibitory potencies of the PROTACs for METTL3 were quantified by a homogeneous time-resolved fluorescence (HTRF)-based enzyme assay as previously described.[40]

[2] = Cell viability assay (CellTiter-Glo) on MOLM-13; type: cell-based; details: human, MOLM-13 cells, average of two biological replicates; for viability at 72 h, […]: 2.5 µM
Description: as §1
Cell viability was determined using a CellTiter-Glo luminescent cell viability assay (Promega) based on the detection of ATP according to the manufacturer’s instructions. 100 μL of the reagent was added to each well and incubated for 10 min at room temperature. […] Background luminescence value was obtained from wells containing the CellTiter-Glo reagent and medium without cells. The resulting data was analyzed in GraphPad Prism 9.

T1 sequence (Q86U44 2-580 limits assumed): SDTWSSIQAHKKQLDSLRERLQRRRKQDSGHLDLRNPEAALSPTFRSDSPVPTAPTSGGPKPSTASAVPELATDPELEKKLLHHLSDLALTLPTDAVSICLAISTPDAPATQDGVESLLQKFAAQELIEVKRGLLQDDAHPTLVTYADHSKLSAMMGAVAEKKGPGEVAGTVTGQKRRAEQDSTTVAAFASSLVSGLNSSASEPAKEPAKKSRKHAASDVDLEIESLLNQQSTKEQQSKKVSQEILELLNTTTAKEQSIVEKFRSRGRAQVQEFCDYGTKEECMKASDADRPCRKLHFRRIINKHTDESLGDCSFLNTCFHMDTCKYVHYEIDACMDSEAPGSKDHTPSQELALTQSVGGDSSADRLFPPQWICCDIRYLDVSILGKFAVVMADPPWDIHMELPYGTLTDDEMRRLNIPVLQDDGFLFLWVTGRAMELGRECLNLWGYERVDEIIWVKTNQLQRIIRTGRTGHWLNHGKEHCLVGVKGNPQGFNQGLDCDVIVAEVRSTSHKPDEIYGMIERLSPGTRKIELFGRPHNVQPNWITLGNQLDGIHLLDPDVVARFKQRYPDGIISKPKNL
T1 sequence (Q9HCE5 whole entry partner): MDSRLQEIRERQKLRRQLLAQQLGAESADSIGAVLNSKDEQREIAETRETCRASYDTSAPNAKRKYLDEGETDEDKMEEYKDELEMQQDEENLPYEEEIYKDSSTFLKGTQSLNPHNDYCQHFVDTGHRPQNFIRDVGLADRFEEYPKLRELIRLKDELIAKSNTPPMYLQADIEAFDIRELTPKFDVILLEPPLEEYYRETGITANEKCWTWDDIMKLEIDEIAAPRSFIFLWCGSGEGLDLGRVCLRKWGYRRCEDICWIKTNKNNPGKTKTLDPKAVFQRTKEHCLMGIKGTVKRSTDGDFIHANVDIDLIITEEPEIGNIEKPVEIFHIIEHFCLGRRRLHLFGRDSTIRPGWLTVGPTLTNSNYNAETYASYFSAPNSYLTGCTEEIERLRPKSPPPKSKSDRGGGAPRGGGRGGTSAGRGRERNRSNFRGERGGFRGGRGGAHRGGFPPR
T2 sequence (Q86U44 354-580): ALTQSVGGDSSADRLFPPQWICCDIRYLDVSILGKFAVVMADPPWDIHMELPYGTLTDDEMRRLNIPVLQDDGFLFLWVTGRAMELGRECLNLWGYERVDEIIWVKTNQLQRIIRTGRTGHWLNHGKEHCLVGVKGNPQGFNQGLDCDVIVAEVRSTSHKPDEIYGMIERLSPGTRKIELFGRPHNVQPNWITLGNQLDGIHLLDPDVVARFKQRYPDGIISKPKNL
T2 sequence (Q9HCE5 107-395 partner limits assumed): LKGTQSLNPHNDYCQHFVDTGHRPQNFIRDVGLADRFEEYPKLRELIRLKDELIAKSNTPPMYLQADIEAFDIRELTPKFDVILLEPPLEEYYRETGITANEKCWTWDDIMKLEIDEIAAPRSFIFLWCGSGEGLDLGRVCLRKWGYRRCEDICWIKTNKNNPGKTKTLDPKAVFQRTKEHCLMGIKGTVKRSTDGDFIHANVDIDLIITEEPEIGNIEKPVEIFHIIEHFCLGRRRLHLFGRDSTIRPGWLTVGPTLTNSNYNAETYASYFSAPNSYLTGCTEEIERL
T2 sequence (Q96SW2 318-442): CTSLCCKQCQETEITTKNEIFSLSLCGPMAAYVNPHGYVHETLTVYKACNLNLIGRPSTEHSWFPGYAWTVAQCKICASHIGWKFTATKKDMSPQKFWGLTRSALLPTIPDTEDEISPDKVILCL
Chain of METTL3-14 (Q86U44 whole entry): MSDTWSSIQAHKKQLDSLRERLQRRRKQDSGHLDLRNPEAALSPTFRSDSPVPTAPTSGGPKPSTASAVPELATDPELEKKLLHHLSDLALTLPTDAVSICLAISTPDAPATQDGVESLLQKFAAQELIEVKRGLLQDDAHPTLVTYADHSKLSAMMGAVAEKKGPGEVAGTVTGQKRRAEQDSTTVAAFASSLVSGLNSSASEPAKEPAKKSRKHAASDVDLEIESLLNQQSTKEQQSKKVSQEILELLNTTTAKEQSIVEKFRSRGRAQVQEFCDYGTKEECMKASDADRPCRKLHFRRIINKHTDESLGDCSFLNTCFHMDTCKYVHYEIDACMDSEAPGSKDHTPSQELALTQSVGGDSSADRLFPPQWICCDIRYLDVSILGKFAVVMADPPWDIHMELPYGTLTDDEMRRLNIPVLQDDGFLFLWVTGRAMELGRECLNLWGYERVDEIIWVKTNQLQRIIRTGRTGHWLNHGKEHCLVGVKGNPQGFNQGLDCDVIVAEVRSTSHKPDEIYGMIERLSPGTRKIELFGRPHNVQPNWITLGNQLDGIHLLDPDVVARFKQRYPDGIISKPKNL
Chain of METTL3-14 (Q9HCE5 whole entry, further chain): as the sequence (Q9HCE5 whole entry partner) above

| SMILES | MOLM-13 West. blot at 24h 2 μM comp conc. Degradation (%) of METTL3 (METTL3) | MOLM-13 West. blot at 24h 2 μM comp conc. Degradation (%) of METTL14 (METTL14) | TCFA amplitude (mean ± SEM) [1] | ECmax (nM) ± SD [1] | IC50 (METTL3-14) [nM] | ECmax [1] [µM] | viability at 72 h, 0.6 µM [2] [%] | viability at 72 h, 1.25 µM [2] [%] | viability at 72 h, […] [2] [%] | viability at 72 h, 5 µM [2] [%] | viability at 72 h, 10 µM [2] [%] |
| --- | --- | --- | --- | --- | --- | --- | --- | --- | --- | --- | --- |
| CC1(C)CCN(Cc2ccc(N3CC(=O)NC4(CCN(c5cc(NCCCNC(=O)CCCCCCCCCCn6cc(CNc7cccc8c7C(=O)N(C7CCC(=O)NC7=O)C8=O)nn6)ncn5)CC4)C3)cc2)CC1 (centres unmarked) [Compound 8] | / (Degradation <10% or stabilization) | / (Degradation <10% or stabilization) | 0.6 | 2200 (n = 1) nM | 480 ± 100 |  |  |  |  |  |  |
| CC1(C)CCN(Cc2ccc(N3CC(=O)NC4(CCN(c5cc(NCCCNC(=O)CCOCCOCCOCCOCCOCCNc6cccc7c6C(=O)N(C6CCC(=O)NC6=O)C7=O)ncn5)CC4)C3)cc2)CC1 (centres unmarked) [Compound 4] | / (Degradation <10% or stabilization) | / (Degradation <10% or stabilization) | 0.4 | 2000 (n = 1) nM | 640 ± 120 | 2.0 |  |  |  |  |  |
| CC1(C)CCN(Cc2ccc(N3CC(=O)NC4(CCN(c5cc(NCCCNC(=O)CCOCCOCCOCCOCCNc6cccc7c6C(=O)N(C6CCC(=O)NC6=O)C7=O)ncn5)CC4)C3)cc2)CC1 (centres unmarked) [Compound 3] | / (Degradation <10% or stabilization) | / (Degradation <10% or stabilization) | 0.3 ± 0.2 | 1900 (n = 1) nM | 590 ± 130 | 1.9 |  |  |  |  |  |
| CC1(C)CCN(Cc2cc(F)c(N3CC(=O)NC4(CCN(c5cc(NCCCNC(=O)CCCCCCCCCCn6cc(CNc7cccc8c7C(=O)N(C7CCC(=O)NC7=O)C8=O)nn6)ncn5)CC4)C3)cc2F)CC1 (centres unmarked) [Compound 13] | 19 ± 20% | 19 ± 13% | 0.8 ± 0.0 | 1800 ± 250 nM | 220 ± 40 |  |  |  |  |  |  |
| CC1(C)CCN(Cc2ccc(N3CC(=O)NC4(CCN(c5cc(NCCCNC(=O)CCCCCCCCNc6cccc7c6CN(C6CCC(=O)NC6=O)C7=O)ncn5)CC4)C3)cc2)CC1 (centres unmarked) [Compound 5] | / (Degradation <10% or stabilization) | / (Degradation <10% or stabilization) | 0.7 ± 0.1 | 660 ± 20 nM | 260 ± 30 |  |  |  |  |  |  |
| CC1(C)CCN(Cc2ccc(N3CC(=O)NC4(CCN(c5cc(NCCCNC(=O)CCCCCCCCCCNc6cccc7c6CN(C6CCC(=O)NC6=O)C7=O)ncn5)CC4)C3)cc2)CC1 (centres unmarked) [Compound 6] | / (Degradation <10% or stabilization) | / (Degradation <10% or stabilization) | 0.4 | 3600 (n = 1) nM | 520 ± 60 |  |  |  |  |  |  |
| CC1(C)CCN(Cc2cc(F)c(N3CC(=O)NC4(CCN(c5cc(NCC6CCN(C(=O)CNc7cccc8c7C(=O)N(C7CCC(=O)NC7=O)C8=O)CC6)ncn5)CC4)C3)cc2F)CC1 (centres unmarked) [Compound 21] | 21% and 21 ± 9% | 23 ± 9% | 1.3 ± 0.1 | 60 ± 30 nM |  | 0.06 | 104 | 105 | 110 | 110 | 102 |
| CC1(C)CCN(Cc2ccc(N3CC(=O)NC4(CCN(c5cc(NCCCNC(=O)CCCCCCCCCCCCCCNc6cccc7c6CN(C6CCC(=O)NC6=O)C7=O)ncn5)CC4)C3)cc2)CC1 (centres unmarked) [Compound 7] | / (Degradation <10% or stabilization) | / (Degradation <10% or stabilization) | 0.1 | 5300 (n = 1) nM | 1220 ± 90 |  |  |  |  |  |  |
| CC1(C)CCN(Cc2cc(F)c(N3CC(=O)NC4(CCN(c5cc(NCc6ccc(N7CCN(c8cccc9c8C(=O)N(C8CCC(=O)NC8=O)C9=O)CC7)cc6)ncn5)CC4)C3)cc2F)CC1 (centres unmarked) [Compound 34] |  | < 10% | 0.2 ± 0.1 | 120 ± 30 nM |  |  | 95.8 | 97.3 | 96.3 | 99.2 | 101 |
| CC1(C)CCN(Cc2ccc(N3CC(=O)NC4(CCN(c5cc(NCCCNC(=O)CCOCCOCCNc6cccc7c6C(=O)N(C6CCC(=O)NC6=O)C7=O)ncn5)CC4)C3)cc2)CC1 (centres unmarked) [Compound 1] | / ^a (Degradation <10% or stabilization) | / ^a (Degradation <10% or stabilization) | 0.03 | 6800 (n = 1) nM | 2470 ± 790 | 6.8 |  |  |  |  |  |
| CC1(C)CCN(Cc2ccc(N3CC(=O)NC4(CCN(c5cc(NCCCNC(=O)CCCCCCCCn6cc(CNc7cccc8c7C(=O)N(C7CCC(=O)NC7=O)C8=O)nn6)ncn5)CC4)C3)cc2)CC1 (centres unmarked) [Compound 9] | / (Degradation <10% or stabilization) | / (Degradation <10% or stabilization) | 0.4 | 6700 (n = 1) nM | 1800 ± 290 |  |  |  |  |  |  |
| CC1(C)CCN(Cc2cc(F)c(N3CC(=O)NC4(CCN(c5cc(NCC6CCN(C(=O)CN7CCN(c8cccc9c8C(=O)N(C8CCC(=O)NC8=O)C9=O)CC7)CC6)ncn5)CC4)C3)cc2F)CC1 (centres unmarked) [Compound 35] | 21% and 21 ± 11% | 25 ± 3% | 0.7 ± 0.2 | 20 ± 0 nM |  |  |  |  |  |  | 105 |
